In brackets after ≈: the same amount, converted by molar mass. Where a name gives a salt, the structure may show the parent alone.
What was measured:
[1] = pKa and oil/water partition of indomethacin; format: physicochemical
injected muscle = experiment: IM injection of albendazole sulfoxide preparations in rats; format: in vivo, rat; conditions: versus albendazole
Method: The above experimentation was repeated with albendazole sulfoxide, a more water-soluble analogue of the drug. […] Solubility data for albendazole sulfoxide are: 0.42 mg/ml in water, 17.7 mg/ml in propylene glycol and 179.0 mg/ml in ethanol. […] Both preparations normally settled to albendazole sulfoxide concentrations of 20% (w/v). Samples (0.1 ml) of both preparations were injected IM in rats (n=6) and the muscles were examined at necropsy, 2 days post-injection. […] Propylene glycol, which has two OH groups and a dielectric constant of 32, is an example of a polar organic compound which can be substituted for water.

human skin = experiment: Pin prick anesthesia after intradermal injection, human self-experimentation; conditions: in vivo
Method: The Inventor carried out self-experimentation with Preparation B. I made two intradermal injections of 0.15 ml of Preparation B into the skin of my calf, right leg, inside, at sites 12 cm and 22 cm below the knee. The injections raised weals approx. 1.1 cm in diameter. […] The weals subsided within ca. 30 sec. The injected sites were tested for pin prick and cold stimulus anesthesia for the next 24 hr.
As a control for the above, I injected myself with 0.15 ml volumes of solutions of 1%, 2% and 5% tetracaine-H-Cl. In attempt to make the concentrated solutions less damaging, the pH was adjusted from 5.3 to 6.5. Physiological tonicity was maintained by including glucose (4.3%, 3.2% and 0%, respectively). […] The 1% and 2% tetracaine-H-Cl solutions produced only mild erthrema, with return to normal color when the anesthesia subsided. […] The presented anesthesia values were taken at its periphery. […] This poor outcome with the 5% (w/v) tetracaine solution is in stark contrast to the excellent results obtained with the 20% (w/v) tetracaine-H-I microcrystal.

surgical wounds = conditions: crystals sprinkled into surgical wounds; cited from earlier work
[2] = water
[3] = IV injection; cited from earlier work

O=C1CN(/N=C/c2ccc(-c3ccc([N+](=O)[O-])cc3)o2)C(O)=N1 [Dantrolene]
dissolution in organic solvents (Solubility; 7.9 mg in mineral oil, n-dibutyl ether, methoxyflurane): did not dissolve

COc1ccc2c(c1)c(CC(=O)O)c(C)n2C(=O)c1ccc(Cl)cc1 [Indomethacin]
solubility (Solubility; pH 9.6): 30000 µg/mL (≈ 83800 µM)
solubility (Solubility; water, pH 7, water): 376 µg/mL (≈ 1050 µM)
oil/water partition coefficient ([1]; olive oil/water): 55/1
oil/water partition coefficient ([1]; pentanol/water): 85/1

CN(C)[C@@H]1C(=O)C(C(N)=O)=C(O)[C@@]2(O)C(=O)C3=C(O)c4c(O)cccc4[C@@](C)(O)[C@H]3[C@H](O)[C@@H]12 [OTC, oxytetracycline]
solubility (physchem; water, aqueous solubility): ~1000 µg/mL (≈ 2170 µM)

CCC[S+]([O-])c1ccc2[nH]c(NC(=O)OC)nc2c1 (stereo not shown) [albendazole sulfoxide]
rate of absorption into the blood (injected muscle): Faster rates of absorption into the blood
solubility (physchem; ethanol, organic solvent or mixture, solubility, in ethanol): 179000 µg/mL (≈ 636000 µM)
solubility (physchem; propylene glycol, organic solvent or mixture, solubility, in propylene glycol): 17700 µg/mL (≈ 62900 µM)
solubility (physchem; water, aqueous solubility): 420 µg/mL (≈ 1490 µM)

CCCSc1ccc2nc(NC(=O)OC)[nH]c2c1 [albendazole]
solubility (physchem; water, aqueous solubility): < 100 µg/mL

CC[C@H]1OC(=O)[C@H](C)[C@@H](O[C@H]2C[C@@](C)(OC)[C@@H](O)[C@H](C)O2)[C@H](C)[C@@H](O[C@@H]2O[C@H](C)C[C@H](N(C)C)[C@H]2O)[C@](C)(O)C[C@@H](C)C(=O)[C@H](C)[C@@H](O)[C@]1(C)O [erythromycin]
solubility (physchem; water): 2000 µg/mL (≈ 2730 µM)

CCCCNc1ccc(C(=O)OCCN(C)C)cc1 [hydroiodic acid (HI) salt of tetracaine, tetracaine-H-I]
extension of duration of action (human skin): 5 -fold
duration of local anesthesia (surgical wounds): 45 h

CN(C)[C@@H]1C(=O)C(C(N)=O)=C(O)[C@@]2(O)C(=O)C3=C(O)c4c(O)cccc4[C@@](C)(O)[C@H]3[C@H](O)[C@@H]12 [oxytetracycline]
aqueous solubility [2]: 1100 µg/mL (≈ 2390 µM)

CCCC(C)C1(CC)C(=O)NC(=S)NC1=O (stereo not shown) [thiopental]
listed adverse reactions [3]: venous thrombosis or phlebitis extending from the site of injection

— patent US5091187A, “Phospholipid-coated microcrystals: injectable formulations of water-insoluble drugs” (priority 1991, dated 1992)
